Laboratory results reported in patent publication US12398107B2, “Fungicidal nitroanilino substituted pyrazoles” (FMC Corporation, priority 2018, dated 2025).

What was measured:
Type in all cases: in vivo
Phakopsora pachyrhizi = experiment: Test D: Asian soybean rust, preventive spray on soybean seedlings; details: 50 ppm, 100 = 100% disease control, 0 = no control
Excerpt: General protocol for preparing test suspensions for Tests A-F: the test compounds were first dissolved in acetone in an amount equal to 3% of the final volume and then suspended at the desired concentration (in ppm) in acetone and purified water (50/50 mix by volume) containing 250 ppm of the surfactant PEG400 (polyhydric alcohol esters). The resulting test suspensions were then used in Tests A-F.
The test solution was sprayed to the point of run-off on soybean seedlings. The following day the seedlings were inoculated with a spore suspension of Phakopsora pachyrhizi (the causal agent of Asian soybean rust) and incubated in a saturated atmosphere at 22° C. for 24 h and then moved to a growth chamber at 22° C. for 8 days, after which time visual disease ratings were made.
A rating of 100 indicates 100% disease control and a rating of 0 indicates no disease control (relative to the controls). A dash (-) indicates the compound was not tested.

Botrytis cinerea = experiment: Test E: tomato Botrytis, preventive spray on tomato seedlings; details: 50 ppm, 100 = 100% disease control, 0 = no control
Excerpt: (§1) General protocol for preparing test suspensions for Tests A-F: the test compounds were first dissolved in acetone in an amount equal to 3% of the final volume and then suspended at the desired concentration (in ppm) in acetone and purified water (50/50 mix by volume) containing 250 ppm of the surfactant PEG400 (polyhydric alcohol esters). The resulting test suspensions were then used in Tests A-F. The test suspension was sprayed to the point of run-off on tomato seedlings. The following day the seedlings were inoculated with a spore suspension of Botrytis cinerea (the causal agent of tomato Botrytis) and incubated in a saturated atmosphere at 20° C. for 48 h, and then moved to a growth chamber at 24° C. for 3 days, after which time visual disease ratings were made. A rating of 100 indicates 100% disease control and a rating of 0 indicates no disease control (relative to the controls). A dash (-) indicates the compound was not tested.

[1] = tested on: Blumeria graminis f. sp. tritici; experiment: Test C: wheat powdery mildew, preventive spray on wheat seedlings; details: 50 ppm, rated after 8 days, 100 = 100% disease control, 0 = no control
Excerpt: as §1, with “on wheat” for “on tomato”, “spore dust” for “spore suspension”, “of Blumeria graminis f. sp. tritici, (also known as Erysiphe graminis f. sp. tritici, the” for “of Botrytis cinerea (the”, “of wheat powdery mildew)” for “of tomato Botrytis)”, “a growth chamber” for “a saturated atmosphere”, “for 8” for “for 48 h, and then moved to a growth chamber at 24° C. for 3”

[2] = tested on: Puccinia recondita f. sp. tritici; experiment: Test B: wheat leaf rust, preventive spray on wheat seedlings; details: 50 ppm, 100 = 100% disease control, 0 = no control relative to controls
Excerpt: General protocol for preparing test suspensions for Tests A-F: the test compounds were first dissolved in acetone in an amount equal to 3% of the final volume and then suspended at the desired concentration (in ppm) in acetone and purified water (50/50 mix by volume) containing 250 ppm of the surfactant PEG400 (polyhydric alcohol esters). The resulting test suspensions were then used in Tests A-F. The test solution was sprayed to the point of run-off on wheat seedlings. The following day the seedlings were inoculated with a spore suspension of Puccinia recondita f. sp. tritici (the causal agent of wheat leaf rust) and incubated in a saturated atmosphere at 20° C. for 24 h, and then moved to a growth chamber at 20° C. for 7 days, after which time disease ratings were made. A rating of 100 indicates 100% disease control and a rating of 0 indicates no disease control (relative to the controls). A dash (-) indicates the compound was not tested.

Alternaria solani = experiment: Test F: tomato early blight, preventive spray on tomato seedlings; details: 50 ppm, 100 = 100% disease control, 0 = no control
Excerpt: as §1, with “Alternaria solani” for “Botrytis cinerea”, “early blight)” for “Botrytis)”, “27°” for “20°”, “20°” for “24°”

Septoria tritici = experiment: Test A: wheat leaf blotch, preventive spray on wheat seedlings; details: 50 ppm, 100 = 100% disease control, 0 = no control relative to controls
Excerpt: General protocol for preparing test suspensions for Tests A-F: the test compounds were first dissolved in acetone in an amount equal to 3% of the final volume and then suspended at the desired concentration (in ppm) in acetone and purified water (50/50 mix by volume) containing 250 ppm of the surfactant PEG400 (polyhydric alcohol esters). The resulting test suspensions were then used in Tests A-F. The test solution was sprayed to the point of run-off on wheat seedlings. The following day the seedlings were inoculated with a spore suspension of Septoria tritici (the causal agent of wheat leaf blotch) and incubated in a saturated atmosphere at 24° C. for 48 h, and then moved to a growth chamber at 20° C. for 17 days, after which time disease ratings were made. A rating of 100 indicates 100% disease control and a rating of 0 indicates no disease control (relative to the controls). A dash (-) indicates the compound was not tested.

Cc1nn(C)c(Nc2c(F)cccc2[N+](=O)[O-])c1-c1c(F)cccc1F [Compound 63]
Test D disease control rating (Asian soybean rust) (Phakopsora pachyrhizi): 0% | Test E disease control rating (tomato Botrytis) (Botrytis cinerea): 100% | Test C disease control rating (wheat powdery mildew) [1]: 86% | Test B disease control rating (wheat leaf rust) [2]: 99% | Test F disease control rating (tomato early blight) (Alternaria solani): 96% | Test A disease control rating (wheat leaf blotch) (Septoria tritici): 100%

COc1ccc(Nc2c(-c3ccc(C#N)cc3Cl)c(C)nn2C)c([N+](=O)[O-])c1 [Compound 124]
Test D disease control rating (Asian soybean rust) (Phakopsora pachyrhizi): 25% | Test E disease control rating (tomato Botrytis) (Botrytis cinerea): 100% | Test C disease control rating (wheat powdery mildew) [1]: 99% | Test B disease control rating (wheat leaf rust) [2]: 100% | Test F disease control rating (tomato early blight) (Alternaria solani): 99% | Test A disease control rating (wheat leaf blotch) (Septoria tritici): 100%

COc1cc(F)c(-c2c(C)nn(C)c2Nc2c(F)cc(F)cc2[N+](=O)[O-])c(F)c1 [Compound 84]
Test D disease control rating (Asian soybean rust) (Phakopsora pachyrhizi): 48% | Test E disease control rating (tomato Botrytis) (Botrytis cinerea): 90% | Test C disease control rating (wheat powdery mildew) [1]: 99% | Test B disease control rating (wheat leaf rust) [2]: 100% | Test F disease control rating (tomato early blight) (Alternaria solani): 99% | Test A disease control rating (wheat leaf blotch) (Septoria tritici): 100%

Cc1cc(F)c(Nc2c(-c3ccc(C#N)cc3Cl)c(C)nn2C)c([N+](=O)[O-])c1 [Compound 127, 3-chloro-4-[5-[(2-fluoro-4-methyl-6-nitrophenyl)amino]-1,3-dimethyl-1H-pyrazol-4-yl]benzonitrile]
pest or weed control at 50 ppm (Phakopsora pachyrhizi; Phakopsora pachyrhizi, read-out: Test D disease control rating (Asian soybean rust)): 96% | pest or weed control at 50 ppm (Botrytis cinerea; Botrytis cinerea, read-out: Test E disease control rating (tomato Botrytis)): 100% | pest or weed control at 50 ppm ([1]; Blumeria graminis, 192 h, read-out: Test C disease control rating (wheat powdery mildew)): 92% | pest or weed control at 50 ppm ([2]; read-out: Test B disease control rating (wheat leaf rust)): 99% | pest or weed control at 50 ppm (Alternaria solani; Alternaria solani, read-out: Test F disease control rating (tomato early blight)): 100% | pest or weed control at 50 ppm (Septoria tritici; Zymoseptoria tritici, read-out: Test A disease control rating (wheat leaf blotch)): 100%

Cc1nn(C)c(Nc2cccc(Cl)c2[N+](=O)[O-])c1-c1c(F)cccc1F [Compound 99]
Test D disease control rating (Asian soybean rust) (Phakopsora pachyrhizi): 0% | Test E disease control rating (tomato Botrytis) (Botrytis cinerea): 24% | Test C disease control rating (wheat powdery mildew) [1]: 0% | Test B disease control rating (wheat leaf rust) [2]: 0% | Test F disease control rating (tomato early blight) (Alternaria solani): 0% | Test A disease control rating (wheat leaf blotch) (Septoria tritici): 99%

CCc1nn(C)c(Nc2c(F)cccc2[N+](=O)[O-])c1-c1ccc(F)cc1F [Compound 46]
Test D disease control rating (Asian soybean rust) (Phakopsora pachyrhizi): 0% | Test E disease control rating (tomato Botrytis) (Botrytis cinerea): 99% | Test C disease control rating (wheat powdery mildew) [1]: 99% | Test B disease control rating (wheat leaf rust) [2]: 98% | Test F disease control rating (tomato early blight) (Alternaria solani): 81% | Test A disease control rating (wheat leaf blotch) (Septoria tritici): 100%

COc1ccc(Nc2c(-c3ccc(F)cc3Cl)c(C)nn2C)c([N+](=O)[O-])c1 [Compound 119]
Test D disease control rating (Asian soybean rust) (Phakopsora pachyrhizi): 92% | Test E disease control rating (tomato Botrytis) (Botrytis cinerea): 100% | Test C disease control rating (wheat powdery mildew) [1]: 99% | Test B disease control rating (wheat leaf rust) [2]: 100% | Test F disease control rating (tomato early blight) (Alternaria solani): 99% | Test A disease control rating (wheat leaf blotch) (Septoria tritici): 100%

Cc1nn(C)c(Nc2c(Cl)cc(F)cc2[N+](=O)[O-])c1-c1ccc(F)cc1Br [Compound 43]
Test D disease control rating (Asian soybean rust) (Phakopsora pachyrhizi): 65% | Test E disease control rating (tomato Botrytis) (Botrytis cinerea): 96% | Test C disease control rating (wheat powdery mildew) [1]: 97% | Test B disease control rating (wheat leaf rust) [2]: 100% | Test F disease control rating (tomato early blight) (Alternaria solani): 64% | Test A disease control rating (wheat leaf blotch) (Septoria tritici): 100%

Cc1nn(C)c(Nc2c(F)cccc2[N+](=O)[O-])c1-c1c(F)cc(Cl)cc1F [Compound 151]
Test D disease control rating (Asian soybean rust) (Phakopsora pachyrhizi): 0% | Test E disease control rating (tomato Botrytis) (Botrytis cinerea): 99% | Test C disease control rating (wheat powdery mildew) [1]: 99% | Test B disease control rating (wheat leaf rust) [2]: 100% | Test F disease control rating (tomato early blight) (Alternaria solani): 99% | Test A disease control rating (wheat leaf blotch) (Septoria tritici): 100%

Cc1nn(C)c(Nc2c(F)cccc2[N+](=O)[O-])c1-c1ccc(Cl)cc1Cl [Compound 69]
Test D disease control rating (Asian soybean rust) (Phakopsora pachyrhizi): 77% | Test E disease control rating (tomato Botrytis) (Botrytis cinerea): 100% | Test C disease control rating (wheat powdery mildew) [1]: 97% | Test B disease control rating (wheat leaf rust) [2]: 100% | Test F disease control rating (tomato early blight) (Alternaria solani): 99% | Test A disease control rating (wheat leaf blotch) (Septoria tritici): 100%

Cc1cc(Cl)c(Nc2c(-c3c(F)cccc3Cl)c(C)nn2C)c([N+](=O)[O-])c1 [Compound 24]
Test D disease control rating (Asian soybean rust) (Phakopsora pachyrhizi): 0% | Test E disease control rating (tomato Botrytis) (Botrytis cinerea): 97% | Test C disease control rating (wheat powdery mildew) [1]: 0% | Test B disease control rating (wheat leaf rust) [2]: 89% | Test F disease control rating (tomato early blight) (Alternaria solani): 0% | Test A disease control rating (wheat leaf blotch) (Septoria tritici): 100%

Cc1nn(C)c(Nc2ccc(Br)cc2[N+](=O)[O-])c1-c1ccc(F)cc1Br [Compound 21]
Test D disease control rating (Asian soybean rust) (Phakopsora pachyrhizi): 0% | Test E disease control rating (tomato Botrytis) (Botrytis cinerea): 95% | Test C disease control rating (wheat powdery mildew) [1]: 84% | Test B disease control rating (wheat leaf rust) [2]: 86% | Test F disease control rating (tomato early blight) (Alternaria solani): 17% | Test A disease control rating (wheat leaf blotch) (Septoria tritici): 100%

COc1cc(F)c(-c2c(C)nn(C)c2Nc2c(Cl)cc(F)cc2[N+](=O)[O-])c(F)c1 [Compound 2]
Test D disease control rating (Asian soybean rust) (Phakopsora pachyrhizi): 94% | Test E disease control rating (tomato Botrytis) (Botrytis cinerea): 99% | Test C disease control rating (wheat powdery mildew) [1]: 99% | Test B disease control rating (wheat leaf rust) [2]: 100% | Test F disease control rating (tomato early blight) (Alternaria solani): 61% | Test A disease control rating (wheat leaf blotch) (Septoria tritici): 100%

COc1cc(F)c(Nc2c(-c3c(F)cccc3F)c(C)nn2C)c([N+](=O)[O-])c1 [Compound 97]
Test D disease control rating (Asian soybean rust) (Phakopsora pachyrhizi): 96% | Test E disease control rating (tomato Botrytis) (Botrytis cinerea): 100% | Test C disease control rating (wheat powdery mildew) [1]: 100% | Test B disease control rating (wheat leaf rust) [2]: 100% | Test F disease control rating (tomato early blight) (Alternaria solani): 99% | Test A disease control rating (wheat leaf blotch) (Septoria tritici): 100%

Cc1nn(C)c(Nc2c(F)cc(F)cc2[N+](=O)[O-])c1-c1ccc(F)cc1Cl [Compound 109]
Test D disease control rating (Asian soybean rust) (Phakopsora pachyrhizi): 93% | Test E disease control rating (tomato Botrytis) (Botrytis cinerea): 100% | Test C disease control rating (wheat powdery mildew) [1]: 100% | Test B disease control rating (wheat leaf rust) [2]: 100% | Test F disease control rating (tomato early blight) (Alternaria solani): 99% | Test A disease control rating (wheat leaf blotch) (Septoria tritici): 100%
